Data published in ChEMBL document CHEMBL1156829 (Proc Natl Acad Sci U S A, 2008).

Columns and labels:
[1] = tested on: Plasmodium falciparum; assay: NOVARTIS: Inhibition of Plasmodium falciparum 3D7 (drug-susceptible) proliferation in erythrocyte-based infection assay; format: functional, organism-based; details: Plasmodium falciparum, 3D7
[2] = tested on: Plasmodium falciparum; assay: NOVARTIS: Inhibition of Plasmodium falciparum W2 (drug-resistant) proliferation in erythrocyte-based infection assay; format: functional, organism-based; details: Plasmodium falciparum, W2; read-out: EC50
[3] = NOVARTIS: Cytotoxicity against human hepatocellular carcinoma cell line (Huh7); format: toxicity, cell-based, Huh-7; details: Huh7 cells (hepatocellular carcinoma cell line)

SMILES | EC50 [1] | EC50 [2] | CC50 [3]
CN(C)c1ccc(/C=C2/SC(=Nc3ccc(O)cc3)NC2=O)cc1 | 2820 nM | > 12500 nM | > 100000 nM
Nc1nc(N)c2cc(S(=O)(=O)N3CCCC3)ccc2n1 | 58.5 nM | > 1250 nM | 12900 nM
NC(=O)Cc1ccccc1 | > 12500 nM | 9500 nM | > 100000 nM
CCSc1sc2sccc2[n+]1CC | 944 nM | 833 nM | > 8580 nM
O=C(c1ccccc1)c1cc(Cl)ccc1NCCBr | > 1250 nM | > 955 nM | > 10000 nM
Cc1c(Cl)cccc1NCC(=O)NN=C1CCCC1 | > 1250 nM | > 948 nM | > 10000 nM
CCCCNC(=O)N(CCCC(C)Nc1cc(OC)cc2cccnc12)Cc1ccc(OC)c(OC)c1 (stereo not drawn) | 1260 nM | 422 nM | > 4470 nM
CCOC(=O)c1cnn(-c2ccnc3cc(Cl)ccc23)c1CNC(C)c1cccs1 (stereo not drawn) | > 1560 nM | > 944 nM | > 10000 nM
CCCCCOc1ccc(/C=C2/N=C(c3ccccc3)OC2=O)cc1 | > 116 nM | > 944 nM | > 10000 nM
COCCNC(=O)c1ccc2c(=O)n(Cc3ccc4c(c3)OCO4)c(=S)[nH]c2c1 | > 533 nM | 943 nM | > 10000 nM
Oc1ccc2cc(-c3nc4ccccc4[nH]3)c3nc4ccccc4n3c2c1 | > 1050 nM | 970 nM | > 10000 nM
CSc1nccc(-c2cc(F)cc3c2OC(CNC(=O)C2CC(=O)c4ccccc42)C3)n1 (stereo not drawn) | 1800 nM | > 969 nM | > 10000 nM
CCN1CCN(CC=Cc2ccccc2[N+](=O)[O-])CC1 | > 12500 nM | > 9690 nM | > 100000 nM
CS(=O)(=O)c1cnc2ncnn2c1C1CCCN(C(=O)c2ccccn2)C1 (stereo not drawn) | 311 nM | > 1250 nM | > 10000 nM
Cc1cc(-c2cn[nH]c2C2CCCN(C(=O)Cc3ccccc3F)C2)on1 (stereo not drawn) | > 1250 nM | > 969 nM | > 10000 nM
CCOc1ccc(C(=O)Nc2cccc(-c3nc4cc(C)ccc4o3)c2C)cc1 | > 1250 nM | > 968 nM | > 10000 nM
CC(Cc1ccccc1)NCCCCCNC(C)Cc1ccccc1 (stereo not drawn) | 238 nM | 503 nM | 5320 nM
OC(CN1CCOCC1)Cn1cnc2c(SCc3ccccc3)ncnc21 (stereo not drawn) | > 12500 nM | > 9670 nM | > 100000 nM
CCCCCN(CC(=O)Nc1cc(C(C)(C)C)nn1-c1ccc(Cl)c(Cl)c1)C(=O)c1ccc2c(c1)OCO2 | 1040 nM | 966 nM | > 10000 nM
O=C(O)c1cccc(N2N=C(c3ccccc3)CC2=O)c1 | > 12500 nM | > 9630 nM | > 100000 nM
Oc1ccc(-c2cncc(NCc3ccc4c(c3)OCO4)c2)cc1 | 1170 nM | 960 nM | > 10000 nM
O=C1C2CN(C(=O)Nc3ccccc3)C(c3ccc(Cl)cc3)C2C(=O)N1c1ccccc1 (stereo not drawn) | > 1250 nM | > 958 nM | > 10000 nM
O=C(Nc1ccccc1)/C(=C\c1ccncc1)NC(=O)c1ccccc1 | > 1250 nM | > 955 nM | > 10000 nM
CC(C)Nc1nc(-c2cccnc2)nc2ccccc12 | > 829 nM | > 955 nM | > 10000 nM

SMILES | EC50 [1] | EC50 [2] | CC50 [3]
COc1ccc(OC)c(-c2ccc(O)c(CNC3CCCCC3)c2)c1 | 842 nM | 953 nM | > 10000 nM
COc1ccc(CNC(=O)c2ccc3c(c2)N=C(/C=C/c2ccccc2)N(CCN2CCOCC2)C3)cc1 | 790 nM | > 949 nM | > 10000 nM
CCN(CC)CCN(Cc1cc2cc(OC)ccc2[nH]c1=O)C(=S)Nc1cccc(Cl)c1 | 1190 nM | 2190 nM | 23100 nM
N#C/C(=C\C=C\c1ccc([N+](=O)[O-])o1)c1nc2ccccc2[nH]1 | 1050 nM | 946 nM | > 10000 nM
CC(=O)Nc1ccc(C(=O)N2CCC(Oc3cccc(CN(C)Cc4cccc5ccccc45)c3)CC2)cc1 | > 1250 nM | 945 nM | > 10000 nM
COc1cc(C=NNC(=O)c2ccco2)ccc1OCc1ccc([N+](=O)[O-])cc1 | > 1250 nM | > 941 nM | > 10000 nM
COc1ccc(OC)c(-c2ccc(O)c(CNC3CCCCCCC3)c2)c1 | 767 nM | 952 nM | > 10000 nM
O=c1c2c3c(sc2ncn1Cc1cccc(Cl)c1)CC(N1CCCCC1)CC3 (stereo not drawn) | 2950 nM | 2640 nM | 27800 nM
COC(=O)c1c(-c2c(F)cccc2Cl)noc1C=CNc1ccccc1 | 11400 nM | 6980 nM | 73700 nM
CC1CC(=Cc2ccncc2)C(=O)C(=Cc2ccncc2)C1 (stereo not drawn) | 1630 nM | 736 nM | 7770 nM
COc1ccc(N2C(=O)/C(=C3/C(=O)Nc4ccc(F)cc43)SC2=S)c(OC)c1 | > 926 nM | 947 nM | > 10000 nM
O=C(COC(c1ccccc1)c1cccnc1)NCCNC(=O)OCc1ccccc1 (stereo not drawn) | 967 nM | 941 nM | > 10000 nM
CCOc1ccc(CN(C(=O)C(C)(C)CCl)C(C)CCCN(CC)CC)cc1 (stereo not drawn) | > 878 nM | 941 nM | > 10000 nM
Cc1ccc(NC=C2C(=O)NC(=S)NC2=O)cc1 | > 12500 nM | > 9490 nM | > 100000 nM
COCC(=O)NC(c1ccccc1)c1cc(Cl)c2cccnc2c1O (stereo not drawn) | 1050 nM | 950 nM | > 10000 nM
Nc1nc(N)nc(C(c2ccccc2)c2ccccc2)n1 | 1090 nM | > 1250 nM | > 13200 nM
COc1ccc(/C=C2\N=C(c3ccc(Cl)cc3)N(c3cc(Cl)ccc3C)C2=O)cc1OC | > 1250 nM | > 949 nM | > 10000 nM
COc1cc(NC(C)CCCN(Cc2ccc(Cl)cc2)C(=O)c2ccc(Cl)cc2Cl)c2ncccc2c1 (stereo not drawn) | 376 nM | 473 nM | 4870 nM
CCCNC(=O)Cn1nc(C)n2c(cc3sccc32)c1=O | > 1250 nM | > 971 nM | > 10000 nM
Cc1cn2c3ccccc3n(CCN3CCOCC3)c2n1 | > 2480 nM | > 12500 nM | > 100000 nM
CN(Cc1ccccc1)C(=O)CSc1nc(NCc2ccccc2)c2ccccc2n1 | > 3030 nM | > 12500 nM | > 100000 nM
O=C1Nc2ccccc2Sc2ccccc21 | > 3030 nM | > 12500 nM | > 100000 nM
CCOc1ccc2c(C)nc(NC(N)=NC(C)=O)nc2c1 | 3020 nM | > 12500 nM | > 100000 nM
CC1CN(C(=O)C(Cc2c[nH]c3ccccc23)NC(=O)CCl)CCN1C(=O)Nc1ccccc1 (stereo not drawn) | 289 nM | > 1250 nM | > 10000 nM

SMILES | EC50 [1] | EC50 [2] | CC50 [3]
Cc1ccc(N2C(=O)C3C(C2=O)C2(c4ccccc4)C(=O)C3(c3ccccc3)C(c3ccccc3)=C2c2ccccc2)c([N+](=O)[O-])c1 (stereo not drawn) | 2640 nM | > 12500 nM | > 100000 nM
CCNC1=C(C(=O)c2ccccc2)N(CC(=O)c2ccc(Br)cc2)S(=O)(=O)c2ccccc21 | > 1250 nM | 966 nM | > 10000 nM
Cc1ccccc1CSc1ccc(-c2cccs2)nn1 | > 1060 nM | 963 nM | > 10000 nM
COc1ccc2c(c1)sc1nc(C)c(C)c(C)[n+]12 | 688 nM | > 952 nM | > 10000 nM
Cc1ccc(Nc2cc(C)nc(NCc3ccccc3)n2)c(C)c1 | 306 nM | 619 nM | 6510 nM
CC1CCCC(NC(=O)C2N(CCN3CCCCC3C)C(=O)C3C(C(=O)Nc4cccc(Cl)c4)C4C=CC32O4)C1C (stereo not drawn) | > 10400 nM | 4610 nM | 47700 nM
COc1ccc(CC(=O)Nc2ccc(S(=O)(=O)N3CCCCCC3)cc2)cc1 | > 12500 nM | 9690 nM | > 100000 nM
O=C1NN=C2C1=NC1(CCCCC1)Cc1ccccc12 | 325 nM | 376 nM | 3900 nM
N#C/C(=C\c1ccc(Sc2ccccc2)o1)c1nc2ccccc2[nH]1 | 1510 nM | 947 nM | > 10000 nM
O=C(NN=Cc1cc2ccccc2cc1O)c1cccnc1 | 871 nM | 946 nM | > 10000 nM
CCOC(=O)c1ccc(N(C(=O)CSCC(=O)Nc2cc(C)on2)C(C(=O)NC2CCCCC2)c2ccc(O)c(O)c2)cc1 (stereo not drawn) | > 316 nM | > 1250 nM | > 10000 nM
S=C(NN=Cc1ccccn1)NC1CC2CC1C1C=CCC21 (stereo not drawn) | 123 nM | 109 nM | > 1140 nM
c1cncc(-c2cc(NCCCn3ccnc3)nc(-c3ccncc3)n2)c1 | 1090 nM | 956 nM | > 10000 nM
CCCCN(CCCC)S(=O)(=O)c1nc(C)c(Cl)c(C)c1C#N | 3090 nM | > 12500 nM | > 100000 nM
O=C(Cn1c(=O)oc2cc(S(=O)(=O)NCc3ccccc3)ccc21)NC1CCCCC1 | > 1250 nM | > 955 nM | > 10000 nM
O=C(Nc1cc(C(F)(F)F)ccc1OCc1ccccc1)c1ccccc1O | > 1250 nM | 949 nM | > 10000 nM
CCOC(=O)Cn1cnc2c(nnn2Cc2ccc(F)cc2)c1=O | 380 nM | 160 nM | > 1700 nM
Cc1cc(C)c2nc(SCC(=O)Nc3ccc4c(c3)OCCO4)cc(C)c2c1 | > 1250 nM | > 942 nM | > 10000 nM
Cc1cc([N+](=O)[O-])ccc1-c1ccc(C(=O)Nc2ccc(-c3nc4ccccc4[nH]3)cc2)o1 | 2790 nM | > 12500 nM | > 100000 nM
CCOc1ccc2nc(C)c(CN(C)Cc3ccccc3)c(O)c2c1 | > 1250 nM | 969 nM | > 10000 nM
NC(=O)c1ccc(-n2nnnc2SCc2ccc(Cl)cc2)cc1 | 2830 nM | > 12500 nM | > 100000 nM
Cn1c(=O)c(Cl)c2c3c(c(Cl)ccc31)C(=O)c1ccccc1-2 | > 297 nM | > 1250 nM | > 10000 nM
Nc1nc(N)c2c(OCc3ccc(C(F)(F)F)cc3)cccc2n1 | 782 nM | 972 nM | > 10000 nM
